# Results as given in patent US6911470B1, “Polyoxometalate compounds as antiviral agents” (priority 1988, dated 2005).
# Several values for one entry are separate records, joined by “and”; a condition that tells them apart may be missing. Equal entries are not always repeated. Where two headings read alike, the source gives them in different places.
# Experiments:
# [1] = target: T1, HIV-1 reverse transcriptase (Human immunodeficiency virus type 1 group M subtype B, UniProt P04585); assay: Evaluation of compounds on purified retroviral RT (cell-free, virion-derived); assay type: biochemical; details: Table 2; read-out: EC-50 Cell-Free RT (virion-derived)
# T1 construct: HIV-1 RT was isolated from detergent disrupted virions; made in house; host or cells: virions pelleted from culture fluid of HIV-1-infected PHA-stimulated human PBMC; DEAE-cellulose and phosphocellulose chromatography
# Protocol: Evaluation of compounds on purified retroviral RT. HIV-1 RT was isolated from detergent disrupted virions obtained from the cell-free supernatant of infected PHA-stimulated PBMC. The enzyme was purified by passing the extract through ion-exchange chromatography columns, as described previously (Eriksson et al, Antimicrob. Agents Chemother. 31, 600-604, 1977. Briefly, 750 ml of culture fluid harvested from HIV-1-infected PBMC were ultracentrifuged to pellet the virus. The pellet was dissolved in buffer A [50 mM Tris-HCl, pH 7.9/0.25% Nonidet P-40/5 mM dithiothreitol/20% (vol/vol) glycerol] containing 1 mM EDTA, and freeze-thawed four times. After clarification by centrifugation, the enzyme was partially purified from the supernatant by passing the extract through a DEAE-cellulose column (Whatman DE-52; 2.6×15 cm) previously equilibrated with buffer B (50 mM Tris-Cl, pH 7.9, 50 mM KCl, 1 mM EDTA, 1 mM dithiothreitol, 20% glycerol). Elution was performed using a linear gradient 50-500 mM KCl in buffer B. Fractions containing enzyme activity were dialyzed against buffer B and were further purified on a phosphocellulose column (Whatman P-11) using a linear KCl (50-500 mM) gradient in buffer B. The peak fractions were pooled and dialyzed against buffer B. The enzyme was characterized as HIV-1 reverse transcriptase based on its cation, salt, pH, and template requirements according to previous descriptions (Eriksson et al, Antimicrob. Agents Chemother. 31, 600-604, 1977). The standard reaction mixture was used to evaluate the inhibitory effect of the drugs, as previously described (Eriksson et al, Antimicrob. Agents Chemother. 31, 600-604, 1977). Briefly, the reaction mixtures (final volume 100 μl) contained 100 mM Tris-HCl, pH 8.0, 50 mM KCl, 2 mM MgCl2, 5 mM DTT, 400 ug/ml bovine serum albumin, 3 μg/ml (rA)·(dT)12-18 and 1 μM of [^3H]TTP (specific activity 82.3 Ci/mmol). The reactions were started by the addition of 10 μl of partially purified RT, incubated at 37° C. for 60 min., and processed as previously described (Eriksson et al, Antimicrob. Agents Chemother. 31, 600-604, 1977).
# Median-effect method. Dose-effect relationships were analyzed by the median-effect equation (Chou et al, Adv. Enz. Regul. 22, 27-55, 1984). The slope (m) and median effective and inhibitory concentration (EC50 and IC50) values were obtained by using a computer program developed by Chou and Chou (Chou et al, Elsevier-Biosoft, Elsevier Science Publishers, Cambridge, U.K., 1985).
# Vero cells = assay: Cytotoxicity assay in Vero cells; assay type: cell-based; details: Table 2; >100 μM = Nontoxic; read-out: IC50 Toxicity Vero Cells
# Excerpt: Cell culture assays for heroes simplex viruses. Mycoplasma-free Vero cells, obtained from Flow Laboratory (McLean, Va.), were used for the plaque assays. The methodologies for the plaque reduction and cytotoxicity assays have been previously described (Schinazi et al, Antimicrob. Agents Chemother. 22, 499-507, 1982).
# HSV-2 = assay: Plaque reduction assay for herpes simplex viruses in Vero cells; assay type: cell-based, herpes simplex virus type 2; details: Table 2; read-out: EC-50 HSV-2
# Protocol: (§1) Cell culture assays for heroes simplex viruses. Mycoplasma-free Vero cells, obtained from Flow Laboratory (McLean, Va.), were used for the plaque assays. The methodologies for the plaque reduction and cytotoxicity assays have been previously described (Schinazi et al, Antimicrob. Agents Chemother. 22, 499-507, 1982). Median-effect method. Dose-effect relationships were analyzed by the median-effect equation (Chou et al, Adv. Enz. Regul. 22, 27-55, 1984). The slope (m) and median effective and inhibitory concentration (EC50 and IC50) values were obtained by using a computer program developed by Chou and Chou (Chou et al, Elsevier-Biosoft, Elsevier Science Publishers, Cambridge, U.K., 1985).
# [2] = Comparison of toxicity of polyoxometalate compounds in mice (mortality, haematology); assay type: in vivo; details: BID × 6, 60 mkd i.p.; for Mortality: dead/total
# Excerpt: Comparison of Toxicity of Polyoxometalate Compounds Mice.
# In vivo antiviral experiments. […] Treatment was continued daily for 6 or 10 days.
# HSV-1 = assay: Plaque reduction assay for herpes simplex viruses in Vero cells; assay type: cell-based, herpes simplex virus type 1; details: Table 2; read-out: EC-50 HSV-1
# Protocol: as §1
# human PBM cells = assay: Cytotoxicity assay on uninfected PHA stimulated human PBMC (trypan blue); assay type: cell-based
# Protocol: Cells. […] PBS), and pelleted at 300×g for 10 minutes. […] Cytotoxicity assay. The drugs were evaluated for their potential toxic effects on uninfected PHA stimulated human PBMC. Flasks were seeded so that the final cell concentration was 2×10^5 cells/ml. The cells were cultured with and without drug for 6 days, at which time aliquots were counted for cell viability, as assessed by the trypan blue dye-exclusion method using a hemacytometer. The median inhibitory concentration (IC50) was calculated using the median effect method (Chou et al, Elsevier-Biosoft, Elsevier Science Publishers, Cambridge, U.K., 1985; Chou et al, Adv. Enz. Regul. 22, 27-55, 1984). Median-effect method. Dose-effect relationships were analyzed by the median-effect equation (Chou et al, Adv. Enz. Regul. 22, 27-55, 1984). The slope (m) and median effective and inhibitory concentration (EC50 and IC50) values were obtained by using a computer program developed by Chou and Chou (Chou et al, Elsevier-Biosoft, Elsevier Science Publishers, Cambridge, U.K., 1985).
# Friend, Spleen (EY-10) = assay: UV/XC assay for murine retroviruses in SC-1 cells; assay type: cell-based, murine retrovirus; details: Table 2; read-out: EC-50 Friend, Spleen (EY-10)
# Protocol: UV/XC Assay for Murine Retroviruses Cells. Mouse embryo fibroblasts (SC-1) and XC cells were obtained from the American Type Culture Collection, Rockville, Md. The XC cell line was derived from a transplantable tumor induced in newborn White-Weston rats by the intramuscular injection of the Prague strain of Rous sarcoma virus. […] The cells were maintained in Eagle's minimum essential medium with Hanks balanced salt solution, supplemented with penicillin (100 U/ml), streptomycin (100 μg/ml), sodium bicarbonate (24 mM), Hepes (25 mM), and either 2 (maintenance) or 10 (growth) percent inactivated newborn or fetal calf serum.
# Virus quantitation by UV-XC assay. The XC test (Rowe et al, Virology 42, 1136-1139, 1970) is a plaque-type of assay which tests for the presence and titer of B- and N-tropic murine leukemia viruses. Because these viruses produce no overt signs of infection of SC-1 mouse cells, it is necessary to overlay the virus producing culture with an indicator cell line, XC. The number of syncytia that are produced is a direct measure of the virus titer in FFU.
# Six-well plates were seeded with 1×10^5 SC-1 mouse cells on the first day. On the following day the medium was removed and the inoculum (0.2 ml) was added in medium containing polybrene (4 μg/ml). For determining the antiviral activity of the compounds in culture, the virus dilution selected produced in untreated cultures about 80 foci per well. After 1 hour, the virus was removed and various concentrations of the drug were added. The plates were replenished with medium on the third and fifth days. The medium was removed on the eighth day and the cells exposed to UV irradiation (60 erg/mm^2 per sec) for 30 seconds. Medium containing 10^6 XC cells was then added to each plate. On the eleventh day, the plates were fixed with 10% buffered Formalin and stained with crystal violet. Comparison of the number of foci to those found in virus-infected cells receiving no drug allowed determination of whether a drug at a particular concentration was effective. Control cells without virus but receiving the drug provided an estimate of the drug's toxic effects as quantitated by using trypan blue staining.
# HIV-1 (strain LAV-1) = assay: microbe, parasite or virus in culture; assay type: cell-based
# Protocol: Cells. Human peripheral blood mononuclear cells (PBMC) from healthy HIV-1 seronegative and hepatitis B virus seronegative donors were isolated by Ficoll-Hypaque discontinuous gradient centrifugation at 1,000×g for 30 minutes, washed twice in phosphate-buffered saline (pH 7.2; PBS), and pelleted at 300×g for 10 minutes. Before infection, the cells were stimulated by phytohemagglutinin (PHA) at a concentration of 6 μg/ml for three days in RPMI 1640 medium supplemented with 15% heat-inactivated fetal calf serum, 1.5 mM L-glutamine, penicillin (100 U/ml), streptomycin (100 μg/ml), and 4mM sodium bicarbonate buffer.
# Viruses. HIV-1 (strain LAV-1) was obtained from Dr. P. Feorino (Centers for Disease Control, Atlanta, Ga.). The virus was propagated in human PBMC using RPMI 1640 medium, as described previously (McDougal et al, J. Immun. Meth. 76, 171-183, 1985) without PHA and supplemented with 7% v/v interleukin-2 (Advanced Biotechnologies, Silver Spring, Md.), 7 μg/ml DEAE-dextran (Pharmacia, Uppsala, Sweden), and 370 U/ml anti-human leucocyte (alpha) interferon (ICN, Lisle, Ill.). Virus obtained from cell-free culture supernatant was titrated and stored in aliquots at −80° C. until use.
# Inhibition of virus replication in human PBMC. Uninfected PHA-stimulated human PBMC were uniformly distributed among 25 cm^2 flasks to give a 5 ml suspension containing about 2×10^6 cells/ml. Suitable dilutions of virus were added to infect the cultures. The mean reverse transcriptase (RT) activity of the inocula was 50,000 decompositions per min/ml corresponding to about 100 TCID50, as determined by Groopman et al. (Groopman et al, AIDS Res. Human Retro. 3, 71-85, 1987. The drugs at twice their final concentrations in 5 ml of RPMI 1640 medium, supplemented as described above, were added to the cultures. Uninfected and untreated PBMC at equivalent cell densities were grown in parallel as controls. The cultures were maintained in a humidified 5% CO2-95% air incubator at 37° C. for six days after infection, at which point all cultures were sampled for supernatant reverse transcriptase (RT) activity.
# RT activity assay. Six ml supernatant from each culture was clarified from cells at 300×g for 10 minutes. Virus particles were pelleted from 5 ml samples at 40,000 rpm for 30 minutes using a Beckman 70.1 Ti rotor and suspended in 200 μl of virus disrupting buffer (50 mM Tris-Cl, pH 7.8, 800 mM NaCl, 20% glycerol, 0.5 mM phenylmethyl sulfonyl fluoride, and 0.5% Triton X-100).
# The RT assay was performed in 96-well microtiter plates, as described by Spira et al. (Spira et al, J. Clin. Microbiol. 22, 97-99, 1987). The reaction mixture, which contained 50 mM Tris-Cl pH 7.8, 9 mM MgCl2, 5 mM dithiothreitol (DTT), 4.7 μg/ml (rA)n. (dT)12-18, 140 μM dATP, and 0.22 μM [^3H]TTP, specific activity 78.0 Ci/mmol, equivalent to 17,300 cpm/pmol; NEN Research Products, Boston, Mass., was added to each well. The sample (20 μl) was added to the reaction mixture which was then incubated at 37° C. for 2 hours. The reaction was terminated by the addition of 100 μl 10% trichloroacetic acid (TCA) containing 0.45 mM sodium pyrophosphate. The acid-insoluble nucleic acids which precipitated were collected on glass filters using a Skatron semi-automatic harvester. The filters were washed with 5% TCA and 70% ethanol, dried, and placed in scintillation vials. Four ml of scintillation fluid (Econofluor, NEN Research Products, Boston, Mass.) were added and the amount of radioactivity in each sample was determined using a Packard Tri-Carb liquid scintillation analyzer (model 2,000CA). The results were expressed in dpm/ml of original clarified supernatant.
# Median-effect method. Dose-effect relationships were analyzed by the median-effect equation (Chou et al, Adv. Enz. Regul. 22, 27-55, 1984).
# [3] = Table 2, >100 μM = Nontoxic, read-out: IC50 Toxicity PBM Cells
# [4] = Table 1, read-out: IC50 Toxicity in Human PBM Cells
# [5] = Table 1, read-out: EC50 Anti-HIV-1 Activity in Human PBM Cells
Substance,IC50 (human PBM cells; [4]) [µM],EC50 (HIV-1 (strain LAV-1); [5]) [µM],other results
"(ArgH^+)n(H^+)5-nBT, where n=1-5 [(ARGH^+)nH^+(5−n)BT]",,,EC50 [1]: 25.4 µM; IC50 (Vero cells): > 100 µM; EC50 (HSV-2): 3.16 µM; MDD ± St. Dev. (Mean day of death) [2]: 8.8 ± 0.45; Mortality [2]: 5/5 (100); EC50 (HSV-1): 1.35 µM; IC50 (human PBM cells; [3]): 328 µM
"(HisH^+)p(H^+)4-pST, where p=1-4 [(HISH^+)nH^+(4−n)ST]",,,"EC50 [1]: 22.3 µM; IC50 (Vero cells): > 100 µM; EC50 (HSV-2): 0.87 µM; EC50 (HSV-1): 0.95 µM; IC50 (human PBM cells; [3]): 182 µM; EC50 (Friend, Spleen (EY-10)): 0.92 µM"
(NH4)5[BW12O40] [(NH4)5BT],,,"EC50 [1]: 68.1 µM; IC50 (Vero cells): > 100 µM; EC50 (HSV-2): > 10 µM; MDD ± St. Dev. (Mean day of death) [2]: 4.6 ± 0.89; Mortality [2]: 5/5 (100); EC50 (HSV-1): > 10 µM; EC50 (HIV-1 (strain LAV-1); Table 2, several values per cell, some in brackets, read-out: EC-50 HIV-1 (LAV-1)): 6.69 µM and 11.6 µM"
(NH4)14[NaP5W30O110] [Formula 17],7.7,0.32,
(n-Bu4N)2Mo6O19 [Formula 16],> 100,> 100,
(n-Bu4N)2W6O19 [Formula 15],> 100,,
H6ZnW12O40 [Formula 5],12,0.9,
K4W4O10(O2)6 [Formula 21],> 100,> 50,
K8SiW11O39 [Formula 9],> 100,0.15,
K10Co4(H2O)2(PW9O34)2 [Formula 12],44,0.8,
K10Cu4(H2O)2(PW9O34)2 [Formula 11],> 100,4.4,
Na6H2W12O40 [Formula 6],> 100,0.34,
Na7PW11O39 [Formula 8],> 100,10.8,
Na9HSiW9O34 [Formula 10],> 100,2.4,
[(DMA)2H]3PMo12O40 [Formula 7],> 100,> 100,
α-(n-Bu4N)4Mo8O26 [Formula 20],> 100,55.3,
